Consider six compounds from ChEMBL document CHEMBL2034965, “The synthesis of 2,5-bis(4-amidinophenyl)thiophene derivatives providing submicromolar-range inhibition of the botulinum neurotoxin serotype A metalloprotease” (Eur J Med Chem, 2012).

For experiment [1], the target named is Botulinum neurotoxin type A (Clostridium botulinum) (UniProt P0DPI0). The experiment can be described thus: Ratio of Ki for NSC 300510 to compound Ki for clostridium botulinum Botulinum neurotoxin type A light chain by RP-HPLC analysis.
Experiment [2] concerns the target Botulinum neurotoxin type A (Clostridium botulinum, UniProt P0DPI0). The experiment is described as follows: Competitive inhibition of clostridium botulinum Botulinum neurotoxin type A light chain by RP-HPLC analysis.
The target of experiment [3] is Botulinum neurotoxin type A (Clostridium botulinum) (UniProt P0DPI0). The experiment can be described thus: Inhibition of clostridium botulinum Botulinum neurotoxin type A light chain at 20 uM by RP-HPLC analysis.

Sequence of Botulinum neurotoxin type A (P0DPI0 2-448 limits assumed): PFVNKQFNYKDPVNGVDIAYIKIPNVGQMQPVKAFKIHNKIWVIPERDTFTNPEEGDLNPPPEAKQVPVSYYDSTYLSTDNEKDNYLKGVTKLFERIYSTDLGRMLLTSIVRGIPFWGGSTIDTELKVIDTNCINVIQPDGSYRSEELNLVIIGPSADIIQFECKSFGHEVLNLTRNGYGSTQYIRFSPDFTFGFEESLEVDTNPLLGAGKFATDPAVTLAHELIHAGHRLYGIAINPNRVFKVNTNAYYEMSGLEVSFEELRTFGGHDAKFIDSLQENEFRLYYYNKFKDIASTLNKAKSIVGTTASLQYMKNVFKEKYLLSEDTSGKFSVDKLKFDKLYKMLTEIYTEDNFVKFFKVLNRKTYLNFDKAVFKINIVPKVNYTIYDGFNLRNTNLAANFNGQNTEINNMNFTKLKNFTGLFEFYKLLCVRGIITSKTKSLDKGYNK
Sequence of Botulinum neurotoxin type A (Clostridium botulinum) (P0DPI0 2-448 limits assumed): as above

Turning to `O=C(NCCCNc1ccnc2cc(Cl)ccc12)c1cc(NC(=O)c2ccc(C(=O)Nc3cc(C(=O)NCCCNc4ccnc5cc(Cl)ccc45)cc(C4=NCCN4)c3)cc2)cc(C2=NCCN2)c1`, the Ratio Ki in experiment [1] came out at 15.

Compound `Clc1ccc2c(NCCCCNCc3ccc(-c4ccc(-c5ccc(CNCCCCNc6ccnc7cc(Cl)ccc67)cc5)s4)cc3)ccnc2c1` came in with a Ki in experiment [2] of 535 nM.

For `Clc1ccc2c(NCCCNCc3ccc(-c4ccc(-c5ccc(CNCCCNc6ccnc7cc(Cl)ccc67)cc5)s4)cc3)ccnc2c1`, the Ratio Ki in experiment [1] amounted to 36.

Take `Clc1ccc2c(NCCCCCNCc3ccc(-c4ccc(-c5ccc(CNCCCCCNc6ccnc7cc(Cl)ccc67)cc5)s4)cc3)ccnc2c1`: the Ki in experiment [2] was 889 nM.

`Clc1ccc2c(NCCNCc3ccc(-c4ccc(-c5ccc(CNCCNc6ccnc7cc(Cl)ccc67)cc5)s4)cc3)ccnc2c1` came in with a Ki in experiment [2] of 882 nM.

Take `N=C(N)c1ccc(-c2ccc(-c3ccc(C(=N)N)cc3)s2)cc1`: the inhibition in experiment [3] came out at 78%. Further, the Ki in experiment [2] worked out at 10900 nM.
